Laboratory results reported in patent US7897364B2, “Method for determining inhibitors of neurotrypsin” (University of Zurich, priority 2005, dated 2011).
pIC50: −log10 of the molar value. Entries after “also recorded” stand apart in the source; their conditions may differ.

Columns and labels:
Urokinase = target: T1, Urokinase (Homo sapiens, UniProt P00749); assay: Specificity test, photometric pNA peptide substrate assay: urokinase; format: biochemical; conditions: 100 μM compound; substrate Bz-VGR-pNA; 25° C.
T1 construct: purchased medac Gesellschaft für klinische Spezialpräparate mbH Urokinase HS medac (100000 I.E.)
Method: (§1) To check the specificity of a compound found to have an inhibitory effect on human neurotrypsin, standard enzyme kinetic measurements with a set of common serine proteases were performed. A standard photometric assay with commercially available proteases and para-nitroanilide-coupled small peptide substrates was used.
(§2) Thrombin from bovine plasma (50 NIH/mg, Merck, D-64271 Darmstadt, Germany). Urokinase HS medac (100000 I.E.; medac Gesellschaft für klinische Spezialpräparate mbH, D-22880 Wedel, Germany).
Bz-VGR-pNA: N-Benzoyl-Val-Gly-Arg-p-nitroanilide, Sigma Aldrich Chemie GmbH.
(§3) The assay was performed in 100 mM Tris-HCl, 150 mM NaCl, 1 mM CaCl2, 5% DMSO, 0.1% PEG 6000, pH 8.0, with the appropriate amount of protease to measure initial velocities and varying amounts of peptide-p-nitroanilide substrates in a range smaller than 0.1 times KM. For inhibition studies 100 μM compound No. 7 were used. Measurements were done at 25° C. in a Cary 50 Spectrophotometer (VARIAN). Initial velocities were determined using various substrate concentrations below 0.1 times KM to be in the range of direct dependency of the initial velocity from the substrate concentration. Initial velocities were plotted against substrate concentrations in the absence or the presence of the candidate inhibitor No. 7. The compound was used in a concentration of 100 μM.

mouse neurotrypsin = target: T2, mouse neurotrypsin (Mus musculus, UniProt O08762); assay: Dose dependence of neurotrypsin inhibition (agrin-EGFP cleavage, Western blot); format: biochemical; conditions: 0 to 200 μM compound; agrin-EGFP substrate; Western blot quantification; read-out: IC50 value (half-maximum amount of product)
T2 construct: made in house; host or cells: mouse myeloma cell line J558L
T2 sequence (O08762 22-761): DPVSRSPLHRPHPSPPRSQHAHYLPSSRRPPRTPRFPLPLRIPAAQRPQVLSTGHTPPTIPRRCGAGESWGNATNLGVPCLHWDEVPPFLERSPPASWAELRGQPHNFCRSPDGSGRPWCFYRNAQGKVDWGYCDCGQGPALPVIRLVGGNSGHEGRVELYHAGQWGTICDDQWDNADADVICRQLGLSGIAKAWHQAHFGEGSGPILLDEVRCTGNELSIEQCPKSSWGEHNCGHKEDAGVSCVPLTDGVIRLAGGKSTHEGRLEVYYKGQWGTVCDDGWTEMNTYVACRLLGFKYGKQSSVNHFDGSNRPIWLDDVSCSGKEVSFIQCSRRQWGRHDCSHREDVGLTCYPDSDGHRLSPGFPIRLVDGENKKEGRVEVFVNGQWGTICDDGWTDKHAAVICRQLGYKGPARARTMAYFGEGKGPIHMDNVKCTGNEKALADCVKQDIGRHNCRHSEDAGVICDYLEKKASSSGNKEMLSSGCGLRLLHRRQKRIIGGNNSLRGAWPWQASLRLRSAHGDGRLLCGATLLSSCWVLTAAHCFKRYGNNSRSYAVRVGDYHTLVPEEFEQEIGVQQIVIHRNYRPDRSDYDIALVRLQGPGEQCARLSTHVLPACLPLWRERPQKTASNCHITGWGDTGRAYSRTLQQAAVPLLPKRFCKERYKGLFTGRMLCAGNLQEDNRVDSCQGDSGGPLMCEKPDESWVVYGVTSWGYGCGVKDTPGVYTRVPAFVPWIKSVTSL
Excerpt: (A) Western blot detection of the 150 kDa C-terminal fragment of agrin (Ag-CF) generated by neurotrypsin-mediated cleavage of agrin-EGFP in dependence of the concentration of compound No. 7, N^1-amidino-N^4-(3,5-dibromosalicylidene)-sulfanilamide.
(B) Graphic plot of the intensity data from (A) against the inhibitor concentration with I=100% intensity for agrin+mouse neurotrypsin without addition of inhibitor compound No. 7.
(§4) The inhibitory activity of small-molecule compounds on the catalytic activity of neurotrypsin is measured in 150 mM NaCl, 5 mM CaCl2, 5% DMSO, 0.1% PEG 6000, and 20 mM MOPS, pH 7.5 in 0.5 ml low protein-binding Eppendorf tubes in a total volume of 15 μl. Human or murine neurotrypsin or catalytically active truncated versions of neurotrypsin are used at a concentration that results in cleavage of 80% of the substrate within 3 hours. As substrate, engineered soluble agrin, for example 0.1-1 μM agrin-EGFP (Example 20) or 0.1-3 μM engineered agrin-C45 (Example 21), is used. Inhibitor solution in 10 mM MOPS, pH 7.5, containing 5% DMSO is added to a final concentration of either 25 or 150 μM. […]
Different concentrations of compound No. 7 from 0 to 200 μM were tested with the assay described in Example 27 with engineered agrin-EGFP as substrate. The generated product was detected by Western blot (FIG. 17 A) and quantified (FIG. 17 B).

Trypsin = target: T3, Trypsin (Sus scrofa, UniProt P00761); assay: Specificity test, photometric pNA peptide substrate assay: trypsin; format: biochemical, hog; conditions: 100 μM compound; substrate Bz-FVR-pNA; 25° C.
T3 construct: Trypsin from hog pancreas; purchased Fluka Chemie AG; host or cells: hog pancreas
T3 sequence (P00761 9-231): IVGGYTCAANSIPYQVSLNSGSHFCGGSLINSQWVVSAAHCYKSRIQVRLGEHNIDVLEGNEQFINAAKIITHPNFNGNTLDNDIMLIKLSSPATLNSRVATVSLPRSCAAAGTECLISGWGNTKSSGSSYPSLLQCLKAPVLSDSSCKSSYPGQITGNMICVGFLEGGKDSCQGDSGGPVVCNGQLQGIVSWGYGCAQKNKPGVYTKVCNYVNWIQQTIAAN
Method: as §1
Trypsin from hog pancreas (16099 U/mg; Fluka Chemie AG, CH-9471 Buchs, Switzerland).
(§5) Bz-FVR-pNA: N-Benzoyl-Phe-Val-Arg-p-nitroanilide HCl, Bachem AG, CH-4416 Bubendorf, Switzerland.
as §3

neurotrypsin = target: T4, neurotrypsin (Homo sapiens, UniProt P56730); assay: Western blot-based screening assay for neurotrypsin inhibitors (agrin-EGFP cleavage); format: biochemical; conditions: inhibitor 25 or 150 μM; agrin-EGFP substrate; 3 h at 37° C.; intensity of 150-kDa fragment on Western blot
T4 construct: Human or murine neurotrypsin or catalytically active truncated versions of neurotrypsin are used; made in house; host or cells: mouse myeloma cell line J558L
T4 sequence (P56730 21-875): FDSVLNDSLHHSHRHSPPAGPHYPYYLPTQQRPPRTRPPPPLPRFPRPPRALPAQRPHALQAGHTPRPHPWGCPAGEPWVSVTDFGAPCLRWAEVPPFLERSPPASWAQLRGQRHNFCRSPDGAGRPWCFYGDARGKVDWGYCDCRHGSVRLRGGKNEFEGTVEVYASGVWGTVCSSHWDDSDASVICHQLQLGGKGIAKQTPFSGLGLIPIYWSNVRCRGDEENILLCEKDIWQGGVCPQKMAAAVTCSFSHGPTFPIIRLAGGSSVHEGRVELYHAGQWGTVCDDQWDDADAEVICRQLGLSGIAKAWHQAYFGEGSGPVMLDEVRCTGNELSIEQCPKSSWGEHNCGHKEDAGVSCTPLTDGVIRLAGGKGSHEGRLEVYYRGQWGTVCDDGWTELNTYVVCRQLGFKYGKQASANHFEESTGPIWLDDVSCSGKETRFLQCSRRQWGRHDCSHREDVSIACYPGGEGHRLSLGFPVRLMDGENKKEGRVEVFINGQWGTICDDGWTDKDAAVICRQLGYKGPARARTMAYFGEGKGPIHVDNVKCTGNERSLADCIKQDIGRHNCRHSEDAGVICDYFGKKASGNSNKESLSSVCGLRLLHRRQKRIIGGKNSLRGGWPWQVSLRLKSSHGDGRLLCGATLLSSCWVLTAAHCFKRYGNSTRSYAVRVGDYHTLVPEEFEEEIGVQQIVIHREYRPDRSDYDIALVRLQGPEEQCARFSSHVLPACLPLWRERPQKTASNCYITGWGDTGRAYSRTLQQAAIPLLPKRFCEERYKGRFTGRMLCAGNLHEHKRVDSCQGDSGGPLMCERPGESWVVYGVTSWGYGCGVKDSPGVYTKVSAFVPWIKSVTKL
Method: Negative control (−): only agrin-EGFP without neurotrypsin. Positive control (+): agrin-EGFP with addition of neurotrypsin.
Compounds were dissolved in DMSO to a final concentration of 10 mM. For the assay the solution in DMSO was diluted with 10 mM MOPS, pH 7.5, to a concentration of 500 μM and 5% DMSO (1:20 dilution). Insoluble and precipitated material was removed by centrifugation (15 min, 16 krcf, RT). The cleared supernatant was used for the inhibition assay, as described in Example 27.
as §4, with “used.” for “used. Inhibitor solution in 10 mM MOPS, pH 7.5, containing 5% DMSO is added to a final concentration of either 25 or 150 μM.”
One way of substrate visualization is Western blotting. […] The intensity of the 150-kDa fragments of agrin-EGFP generated by neurotrypsin-mediated cleavage in the presence of the putative inhibitory compounds (FIG. 16 A) are measured and the relative intensities are plotted (FIG. 16 B).

tPA = target: T5, tPA (Homo sapiens, UniProt P00750); assay: Specificity test, photometric pNA peptide substrate assay: tPA; format: biochemical; conditions: 100 μM compound; substrate IPR-pNA; 25° C.
T5 construct: purchased Dr. Karl Thomae GmbH Actilyse (10 mg)
T5 sequence (P00750 36-562): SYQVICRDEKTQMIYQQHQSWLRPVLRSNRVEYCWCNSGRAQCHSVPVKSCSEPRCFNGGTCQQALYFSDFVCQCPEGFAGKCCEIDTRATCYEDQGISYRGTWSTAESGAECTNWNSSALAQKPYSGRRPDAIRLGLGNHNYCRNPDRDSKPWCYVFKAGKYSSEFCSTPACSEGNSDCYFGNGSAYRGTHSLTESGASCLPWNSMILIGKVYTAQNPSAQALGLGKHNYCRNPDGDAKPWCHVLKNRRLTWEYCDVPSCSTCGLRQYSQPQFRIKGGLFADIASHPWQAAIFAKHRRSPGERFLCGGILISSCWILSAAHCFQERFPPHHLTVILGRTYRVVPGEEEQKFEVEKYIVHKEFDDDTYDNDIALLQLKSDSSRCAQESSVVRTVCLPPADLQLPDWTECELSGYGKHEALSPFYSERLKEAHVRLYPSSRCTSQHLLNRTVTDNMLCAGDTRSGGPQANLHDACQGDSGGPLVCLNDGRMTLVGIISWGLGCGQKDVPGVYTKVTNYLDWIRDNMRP
Method: as §1
tPA: Actilyse (10 mg; Dr. Karl Thomae GmbH, Birkendorfer Straβe 65, D-88397 Biberach, Germany).
IPR-pNA: S-2288, Chromogenix-Instrumentation Laboratory SpA.
as §3

Plasmin = target: T6, Plasmin (Homo sapiens, UniProt P00747); assay: Specificity test, photometric pNA peptide substrate assay: plasmin; format: biochemical; conditions: 100 μM compound; substrate N-Tosyl-GPK-pNA; 25° C.
T6 construct: Plasmin from human plasma; purchased Sigma Aldrich Chemie GmbH; host or cells: human plasma
T6 sequence (P00747 581-810 limits assumed): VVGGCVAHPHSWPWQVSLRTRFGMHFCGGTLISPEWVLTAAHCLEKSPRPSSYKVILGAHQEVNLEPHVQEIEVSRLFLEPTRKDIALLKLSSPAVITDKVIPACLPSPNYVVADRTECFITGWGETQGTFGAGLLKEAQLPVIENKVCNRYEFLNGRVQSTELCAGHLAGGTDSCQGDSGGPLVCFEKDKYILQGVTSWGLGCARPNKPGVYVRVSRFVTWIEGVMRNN
T6 sequence (P00747 97-580 limits assumed): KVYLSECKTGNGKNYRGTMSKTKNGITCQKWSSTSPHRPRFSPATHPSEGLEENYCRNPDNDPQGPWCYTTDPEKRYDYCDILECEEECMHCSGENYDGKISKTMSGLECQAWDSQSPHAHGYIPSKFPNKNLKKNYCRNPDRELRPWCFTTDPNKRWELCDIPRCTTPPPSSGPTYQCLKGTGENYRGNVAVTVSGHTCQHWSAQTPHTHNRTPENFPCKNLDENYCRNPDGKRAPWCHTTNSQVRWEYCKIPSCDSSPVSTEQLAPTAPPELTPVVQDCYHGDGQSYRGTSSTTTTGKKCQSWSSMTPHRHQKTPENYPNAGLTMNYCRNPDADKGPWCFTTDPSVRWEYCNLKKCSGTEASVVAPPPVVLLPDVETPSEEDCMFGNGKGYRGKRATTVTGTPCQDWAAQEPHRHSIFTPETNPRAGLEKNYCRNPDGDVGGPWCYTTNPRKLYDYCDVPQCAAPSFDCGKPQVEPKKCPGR
Method: as §1
(§6) Kallikrein from porcine pancreas (43 U/mg solid; Sigma Aldrich Chemie GmbH). Plasmin from human plasma (3.2 U/mg solid; Sigma Aldrich Chemie GmbH).
N-Tosyl-GPK-pNA: N-Tosyl-Gly-Pro-Lys-p-nitroanilide, #90178, Fluka Chemie AG.
as §3

Thrombin = target: T7, Thrombin (Bos taurus, UniProt P00735); assay: Specificity test, photometric pNA peptide substrate assay: thrombin; format: biochemical, bovine; conditions: 100 μM compound; substrate Bz-FVR-pNA; 25° C.
T7 construct: Thrombin from bovine plasma; purchased Merck; host or cells: bovine plasma
Method: as §1, §2, §5, §3

Factor Xa = target: T8, Factor Xa (Bos taurus, UniProt P00743); assay: Specificity test, photometric pNA peptide substrate assay: factor Xa; format: biochemical, bovine; conditions: 100 μM compound; substrate Bz-IEGR-pNA; 25° C.
T8 construct: purchased Sigma Aldrich Chemie GmbH; host or cells: bovine plasma
T8 sequence (P00743 234-492 limits assumed): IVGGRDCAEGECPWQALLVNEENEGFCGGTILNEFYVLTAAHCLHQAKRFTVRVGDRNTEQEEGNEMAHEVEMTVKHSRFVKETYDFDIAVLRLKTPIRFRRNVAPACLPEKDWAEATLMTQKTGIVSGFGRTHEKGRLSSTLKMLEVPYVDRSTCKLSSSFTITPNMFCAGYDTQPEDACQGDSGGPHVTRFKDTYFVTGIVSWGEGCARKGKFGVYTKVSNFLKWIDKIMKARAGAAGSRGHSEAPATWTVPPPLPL
T8 sequence (P00743 41-180 limits assumed): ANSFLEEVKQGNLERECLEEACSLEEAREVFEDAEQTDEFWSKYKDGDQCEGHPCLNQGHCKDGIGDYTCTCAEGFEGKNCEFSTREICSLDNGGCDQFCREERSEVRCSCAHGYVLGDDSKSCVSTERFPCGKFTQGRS
Method: as §1
Factor Xa activated from bovine plasma (6.1 mg protein/ml; Sigma Aldrich Chemie GmbH, D-89552 Steinheim, Germany).
Bz-IEGR-pNA: S-2222, Chromogenix-Instrumentation Laboratory SpA, 1-20128 Milano, Italy.
as §3

Kallikrein = target: T9, Kallikrein (Sus scrofa, UniProt P00752); assay: Specificity test, photometric pNA peptide substrate assay: kallikrein; format: biochemical, porcine; conditions: 100 μM compound; substrate Bz-FVR-pNA; 25° C.
T9 construct: Kallikrein from porcine pancreas; purchased Sigma Aldrich Chemie GmbH; host or cells: porcine pancreas
T9 sequence (P00752 8-246): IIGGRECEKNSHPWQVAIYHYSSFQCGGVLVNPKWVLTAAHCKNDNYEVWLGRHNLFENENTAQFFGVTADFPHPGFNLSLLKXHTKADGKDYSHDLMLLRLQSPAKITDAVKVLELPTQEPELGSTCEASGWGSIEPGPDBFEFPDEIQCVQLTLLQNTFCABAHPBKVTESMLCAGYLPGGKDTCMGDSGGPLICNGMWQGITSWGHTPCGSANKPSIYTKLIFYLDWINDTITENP
Method: as §1, §6, §5, §3

pIC50 (mouse neurotrypsin): ~4.22
inhibitory activity on neurotrypsin (neurotrypsin): significant inhibitory activity
Compound: N=C(N)NS(=O)(=O)c1ccc(N=Cc2cc(Br)cc(Br)c2O)cc1 [Compound No. 7, N^1-amidino-N^4-(3,5-dibromosalicylidene)-sulfanilamide]
inhibition of urokinase (initial velocities) (Urokinase): None of the investigated enzymes showed a significant inhibition; also recorded: No inhibition
inhibition of trypsin (initial velocities) (Trypsin): None of the investigated enzymes showed a significant inhibition; also recorded: No inhibition
inhibition of tPA (initial velocities) (tPA): None of the investigated enzymes showed a significant inhibition; also recorded: No inhibition
inhibition of plasmin (initial velocities) (Plasmin): None of the investigated enzymes showed a significant inhibition; also recorded: No inhibition
inhibition of thrombin (initial velocities) (Thrombin): None of the investigated enzymes showed a significant inhibition; also recorded: No inhibition
inhibition of factor Xa (initial velocities) (Factor Xa): None of the investigated enzymes showed a significant inhibition; also recorded: No inhibition
inhibition of kallikrein (initial velocities) (Kallikrein): None of the investigated enzymes showed a significant inhibition; also recorded: No inhibition
